Consider 9 compounds from publication PMC5097879 (European journal of medicinal chemistry, 2016).

Counter-ions that a name gives are not always drawn. Like-named read-outs stand apart in the source and are kept apart here.

For orientation: Ki means the equilibrium dissociation constant of an inhibitor or competing ligand from its target.

In one data set the test system is β2-nAChRs. The data set is described as follows: [3H]epibatidine binding competition, β2-nAChRs overall. The arrangement: species or system rat. The following applies: versus parent compound 8.
Data set [1] concerns the target human α4β2-nAChRs (mixture of HS and LS) (Homo sapiens, UniProt P17787+P43681). The following applies: SH-EP1-hα4β2 cells; ref [8], [9]; cited from earlier work.
The target of the next data set is LS α4β2-nAChR (Homo sapiens, UniProt P17787+P43681). The following applies: relative to carbamylcholine; ref [8], [9]; cited from earlier work.
The target in data set [2] is T1, HS α4β2-nAChR (Homo sapiens, UniProt P17787+P43681). The following applies: relative to carbamylcholine; ref [8], [9]; cited from earlier work.
The subject of data set [3] is mice. Kind of data set: SmartCube behavioral platform. The class given is in vivo, mouse. The following applies: 15 min preinjection; for SmartCube behavioral signature, extent of effect: 5 and 10 mg/kg i.p.; for SmartCube behavioral signature, 10 mg/kg compared to 5 mg/kg: i.p.
The target in data set [4] is T1, HS α4β2-nAChR. The data set is described as follows: 86Rb+ ion efflux assay, efficacy at HS α4β2. The data set is classed as cell-based. The following applies: relative to full agonist carbamylcholine; ± SEM.
Data set [5] addresses α4β2* endogenous receptors prepared from rat forebrain (Rattus norvegicus, UniProt P09483+P12390). Kind of data set: [3H]epibatidine binding competition, α4β2*. The following applies: versus the N-H analogue.
Another data set has as its target rat α4β2 nAChR (Rattus norvegicus, UniProt P09483+P12390). The class given is binding. The following applies: versus the N-H analogue.
The conditions of data set [6]: ref [12]; cited from earlier work.
The subject of data set [7] is mice. The data set is described as follows: Mouse forced swim test. The class given is in vivo. The following applies: BALB/cJ mice, 6-min test, P < 0.05.
In another data set the target is α7 subtype. The following applies: read-out: Ki α7 subtype; ref [15], [16]; cited from earlier work.
The test system of data set [8] is high sensitivity (HS) α4β2-nAChR. The following applies: oocytes expressing human nAChRs; ref [15], [16]; cited from earlier work.

Turning to `COCC[C@@H]1C[C@H]1c1cncc(N2C[C@@H]3C[C@H]2CN3)c1` [Compound 26, (1S,4S)-2-[5-[R,2S)-(2-(2-methoxyethyl)cyclopropyl]pyridin-3-yl]-2,5-diazabicyclo[2.2.1]heptane], the “decline in binding affinities at β2-nAChRs” value in the data set with β2-nAChRs is at least 6 fold.

For the compound `COCC[C@H]1C[C@@H]1c1cncc(N2C[C@@H]3C[C@H]2CN3)c1` [Compound 23, (1S,4S)-2-[5-[(1S,2R)-2-(2-methoxyethyl)cyclopropyl]pyridin-3-yl]-2,5-diazabicyclo[2.2.1]heptane], the “decline in binding affinities at β2-nAChRs” value in the data set on β2-nAChRs is at least 6 fold.

`c1cnc2cc3c(cc2n1)[C@@H]1CNC[C@H]3C1` [Compound 1, varenicline]: the “Inactivation Efficacy” value in [1] was 83 ± 1.0%. Also, the “Agonism LS-α4β2 Efficacy” value at LS α4β2-nAChR is on record as 34 ± 3.3%. At HS α4β2-nAChR [2], the “Agonism HS-α4β2 Efficacy” value is reported as 106 ± 5.9%.

Take `COCC[C@@H]1C[C@H]1c1cncc(N2CCCNCC2)c1` [Compound 25, 1-[5-[(1R,2S)-2-(2-methoxyethyl)cyclopropyl]pyridin-3-yl]-1,4-diazepane]: in the data set on mice [3], the “SmartCube behavioral signature, extent of effect” value is “most prominent effects” and the “SmartCube behavioral signature, 10 mg/kg compared to 5 mg/kg” value is listed as “marked increase”. The “Agonism HS-α4β2 Efficacy” value at HS α4β2-nAChR [4] is 58–81%.

Turning to `COCC[C@H]1C[C@@H]1c1cncc(N2CCCN(C)CC2)c1` [Compound 22, 1-[5-[(1S,2R)-2-(2-methoxyethyl)cyclopropyl]pyridin-3-yl]-4-methyl-1,4-diazepane trifluoroacetate], in [5], the “drop in binding affinity at α4β2* caused by N-methyl group” value is “more than 10 fold”. Besides, the “drop in binding affinity at α4β2 caused by N-methyl group” value at rat α4β2 nAChR is “more than 10 fold”.

Regarding `Clc1ccc(OC[C@H]2CCN2)cn1` [Compound 5], in data set [6], the “stability in the presence of HCl or TFA following exposure to water” value is reported as “dimerize to compound 6”.

With `COCC[C@H]1C[C@@H]1c1cncc(N2CCCNCC2)c1` [Compound 21, 1-[5-[(1S,2R)-2-(2-Methoxyethyl)cyclopropyl]pyridin-3-yl]-1,4-diazepane trifluoroacetate], in the data set on mice [3], the “SmartCube behavioral signature, extent of effect” value is on record as “most prominent effects” and the “SmartCube behavioral signature, 10 mg/kg compared to 5 mg/kg” value is “fairly similar behavioral signature”. Also, in the data set on mice [7] (acute PO 1 mg/kg), the “total immobility time compared to control group (water)” value is recorded as “significantly decreased”. Besides, the “total immobility time compared to control group (water)” value in the data set on mice [7] (acute PO 10 mg/kg) is “significantly decreased”. Also, the “Agonism HS-α4β2 Efficacy” value on HS α4β2-nAChR [4] was 58–81%.

As to `c1cncc(N2CCCNCC2)c1` [Compound 7, 1-(pyridin-3-yl)-1,4-diazepane], on α7 subtype, the inhibition constant Ki is 136 nM. For the same compound, in data set [8], the “efficacy relative to acetylcholine at HS α4β2-nAChR” value is listed as 41%.

In the case of `OCCc1cc(-c2cncc(N3CCCNCC3)c2)on1` [Compound 30], in the data set with mice [3], the “SmartCube behavioral signature, extent of effect” value is given as “most prominent effects” and the “SmartCube behavioral signature, 10 mg/kg compared to 5 mg/kg” value is given as “marked increase”. Besides, the “Agonism HS-α4β2 Efficacy” value on HS α4β2-nAChR [4] was 58–81%.
